Laboratory results reported in PMC11912475 (Journal of Medicinal Chemistry, 2025).

What was measured:
Assay type in all cases: cell-based
[1] = target: T1, GluN1-GluN2B NMDAR subtype (Homo sapiens, UniProt Q05586+Q13224); experiment: FLIPR/Ca2+ assay, NMDAR GluN1-GluN2B subtype in CHO cells; conditions: CHO cells, 10 μM L-glutamate and 10 μM glycine, n.d. = 50% of inhibition could not be reached at the highest concentration used
T1 construct: host or cells: NR1-2B-CHO cells, constitutive expression
T1 sequence (Q13224 27-1484, other chains not shown): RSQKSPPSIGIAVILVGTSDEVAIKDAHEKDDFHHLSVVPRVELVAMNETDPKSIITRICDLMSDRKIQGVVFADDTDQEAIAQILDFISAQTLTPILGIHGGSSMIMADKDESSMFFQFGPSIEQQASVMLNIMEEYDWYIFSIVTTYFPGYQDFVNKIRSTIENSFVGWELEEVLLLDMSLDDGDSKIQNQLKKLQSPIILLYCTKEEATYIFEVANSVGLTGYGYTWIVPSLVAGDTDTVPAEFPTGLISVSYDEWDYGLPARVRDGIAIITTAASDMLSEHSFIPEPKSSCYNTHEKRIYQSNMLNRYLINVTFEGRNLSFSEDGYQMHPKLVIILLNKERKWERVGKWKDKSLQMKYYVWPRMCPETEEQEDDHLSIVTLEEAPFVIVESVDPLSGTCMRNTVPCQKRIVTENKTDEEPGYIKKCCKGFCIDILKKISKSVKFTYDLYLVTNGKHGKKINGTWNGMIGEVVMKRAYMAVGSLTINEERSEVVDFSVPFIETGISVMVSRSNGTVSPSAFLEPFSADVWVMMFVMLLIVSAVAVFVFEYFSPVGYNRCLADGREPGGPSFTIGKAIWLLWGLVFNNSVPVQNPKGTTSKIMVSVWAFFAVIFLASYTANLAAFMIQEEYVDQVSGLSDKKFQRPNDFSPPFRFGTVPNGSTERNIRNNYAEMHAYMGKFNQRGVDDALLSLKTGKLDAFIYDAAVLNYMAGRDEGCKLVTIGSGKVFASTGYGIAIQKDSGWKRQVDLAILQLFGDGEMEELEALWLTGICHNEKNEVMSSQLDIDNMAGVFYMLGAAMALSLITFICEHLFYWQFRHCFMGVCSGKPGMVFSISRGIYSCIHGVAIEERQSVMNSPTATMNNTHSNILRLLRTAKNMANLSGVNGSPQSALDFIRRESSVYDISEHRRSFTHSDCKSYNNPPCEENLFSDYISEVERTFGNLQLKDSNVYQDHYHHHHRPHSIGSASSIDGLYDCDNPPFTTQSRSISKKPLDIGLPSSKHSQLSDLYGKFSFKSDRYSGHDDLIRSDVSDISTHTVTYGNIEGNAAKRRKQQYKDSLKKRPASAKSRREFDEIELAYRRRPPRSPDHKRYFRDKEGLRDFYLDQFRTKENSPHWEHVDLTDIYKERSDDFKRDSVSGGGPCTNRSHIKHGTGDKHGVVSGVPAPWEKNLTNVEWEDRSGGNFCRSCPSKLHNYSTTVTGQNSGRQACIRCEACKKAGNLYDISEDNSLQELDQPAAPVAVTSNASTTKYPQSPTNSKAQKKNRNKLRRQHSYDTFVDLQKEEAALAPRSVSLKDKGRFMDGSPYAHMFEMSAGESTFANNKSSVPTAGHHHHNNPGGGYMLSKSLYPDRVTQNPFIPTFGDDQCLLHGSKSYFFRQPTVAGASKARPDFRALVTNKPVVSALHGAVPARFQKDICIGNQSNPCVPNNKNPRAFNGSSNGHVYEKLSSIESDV
Procedure: (§1) These compounds were assessed for their effects on specific heterodimeric NMDAR subtypes stably overexpressed in Chinese Hamster Ovary (CHO) cells. The subtypes tested included GluN1-GluN2A, GluN1-GluN2B, GluN1-GluN2C, and GluN1-GluN2D. CHO cells expressing each of the four NMDAR subtypes were incubated with 10 μM L-glutamate, a concentration known to elicit maximal Ca^2+ influx, serving as the stimulus. Intracellular Ca^2+ levels were subsequently measured to determine the extent of NMDAR activation.
(§2) Assay buffer composition was 145 mM NaCl, 5 mM KCl, 2 mM CaCl2, 1 g/Liter D-(+)-glucose, and 20 mM HEPES (pH 7.3 adjusted with NaOH). Cells were plated at a density of 15.000/well in 384 black/clear bottom plates. […] Cells were kept at 30 °C in 5% CO2 incubator for 24 h. Cells were preloaded for 1 h with 2 μM Fluo-4 Ca^2+-sensitive probe, simultaneously with 2.5 mM probenecid, an inhibitor of nonspecific anion transport, and 500 μM ketamine to avoid cytotoxicity. […] Intracellular Ca^2+ level was monitored by FLIPR (excitation wavelength at 470–495 nm, emission wavelength at 515–575 nm) for 10 s before and 5 min after the addition of test items. All test items, including L-glutamate and glycine, were added simultaneously. […] FLIPR data were normalized as 100%, in the presence of 10 μM L-glutamate and 10 μM glycine, while as 0%, in the presence of assay buffer. […] Then, data were normalized by Excel 2013 (Microsoft Office) software, using wells added with 10 μM L-glutamate plus 10 μM glycine (column 23) as high control, and wells added with assay buffer only (column 24) as low control. To assess plate quality, Z′ calculations were performed in Excel. Z′ was calculated according to following equation: Z′ = 1–3(σh + σl)/|μh – μL| where μ and σ are the means and the standard deviations of the means of high (h) and low (l) controls, respectively. Compound concentration–response curves were plotted by Prism 8 GraphPad software, in the different experimental conditions (see Supporting Information). Data were analyzed using least-squares regression fitting, to fit data to a standard four parameters logistic equation using GraphPad Prism10. This regression fitting allowed the calculation of pIC50 and the corresponding SEM.

[2] = target: GluN1-GluN2D NMDAR subtype (Homo sapiens, UniProt O15399+Q05586); experiment: FLIPR/Ca2+ assay, NMDAR GluN1-GluN2D subtype in CHO cells; conditions: CHO cells, 10 μM L-glutamate and 10 μM glycine, n.d. = 50% of inhibition could not be reached at the highest concentration used
Chain of GluN1-GluN2D NMDAR subtype (O15399 28-1336, other chains not shown): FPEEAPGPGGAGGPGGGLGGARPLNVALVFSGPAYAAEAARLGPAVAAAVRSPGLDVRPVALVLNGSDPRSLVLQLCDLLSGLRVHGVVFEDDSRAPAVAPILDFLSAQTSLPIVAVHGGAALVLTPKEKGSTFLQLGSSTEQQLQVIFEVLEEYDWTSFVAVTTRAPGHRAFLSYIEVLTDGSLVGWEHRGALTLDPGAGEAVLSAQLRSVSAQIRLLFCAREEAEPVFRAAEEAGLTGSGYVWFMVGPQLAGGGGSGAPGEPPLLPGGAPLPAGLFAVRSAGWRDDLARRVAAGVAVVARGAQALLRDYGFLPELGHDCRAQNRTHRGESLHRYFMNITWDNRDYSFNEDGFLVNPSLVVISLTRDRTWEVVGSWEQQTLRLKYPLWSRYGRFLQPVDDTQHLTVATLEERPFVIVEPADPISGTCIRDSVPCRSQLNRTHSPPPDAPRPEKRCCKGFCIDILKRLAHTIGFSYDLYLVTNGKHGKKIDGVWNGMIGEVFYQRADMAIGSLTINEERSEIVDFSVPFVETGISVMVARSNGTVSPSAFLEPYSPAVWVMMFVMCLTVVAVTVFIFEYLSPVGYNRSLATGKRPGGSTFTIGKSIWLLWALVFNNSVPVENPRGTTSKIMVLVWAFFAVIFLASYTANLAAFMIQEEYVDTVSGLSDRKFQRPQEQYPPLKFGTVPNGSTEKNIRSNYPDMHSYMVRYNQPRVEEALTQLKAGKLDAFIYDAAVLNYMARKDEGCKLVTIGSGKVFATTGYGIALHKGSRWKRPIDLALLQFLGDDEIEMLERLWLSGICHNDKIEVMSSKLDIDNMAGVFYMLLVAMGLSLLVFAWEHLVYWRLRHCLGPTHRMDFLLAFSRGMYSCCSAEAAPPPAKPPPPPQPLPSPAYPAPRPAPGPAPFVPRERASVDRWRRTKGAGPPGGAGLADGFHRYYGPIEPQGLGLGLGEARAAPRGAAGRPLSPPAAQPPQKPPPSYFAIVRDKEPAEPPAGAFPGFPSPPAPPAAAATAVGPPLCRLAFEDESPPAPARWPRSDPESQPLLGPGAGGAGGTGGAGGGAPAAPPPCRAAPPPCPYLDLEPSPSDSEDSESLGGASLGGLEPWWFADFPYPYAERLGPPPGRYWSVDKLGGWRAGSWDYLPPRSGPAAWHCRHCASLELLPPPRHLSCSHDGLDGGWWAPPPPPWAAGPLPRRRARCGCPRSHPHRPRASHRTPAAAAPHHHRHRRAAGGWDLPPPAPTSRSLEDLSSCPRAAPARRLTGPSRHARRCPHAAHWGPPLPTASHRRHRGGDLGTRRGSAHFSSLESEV
Procedure: as §1, §2

[3] = target: GluN1-GluN2C NMDAR subtype (Homo sapiens, UniProt Q05586+Q14957); experiment: FLIPR/Ca2+ assay, NMDAR GluN1-GluN2C subtype in CHO cells; conditions: CHO cells, 10 μM L-glutamate and 10 μM glycine, n.d. = 50% of inhibition could not be reached at the highest concentration used
Chain of GluN1-GluN2C NMDAR subtype (Q14957 20-1233, other chains not shown): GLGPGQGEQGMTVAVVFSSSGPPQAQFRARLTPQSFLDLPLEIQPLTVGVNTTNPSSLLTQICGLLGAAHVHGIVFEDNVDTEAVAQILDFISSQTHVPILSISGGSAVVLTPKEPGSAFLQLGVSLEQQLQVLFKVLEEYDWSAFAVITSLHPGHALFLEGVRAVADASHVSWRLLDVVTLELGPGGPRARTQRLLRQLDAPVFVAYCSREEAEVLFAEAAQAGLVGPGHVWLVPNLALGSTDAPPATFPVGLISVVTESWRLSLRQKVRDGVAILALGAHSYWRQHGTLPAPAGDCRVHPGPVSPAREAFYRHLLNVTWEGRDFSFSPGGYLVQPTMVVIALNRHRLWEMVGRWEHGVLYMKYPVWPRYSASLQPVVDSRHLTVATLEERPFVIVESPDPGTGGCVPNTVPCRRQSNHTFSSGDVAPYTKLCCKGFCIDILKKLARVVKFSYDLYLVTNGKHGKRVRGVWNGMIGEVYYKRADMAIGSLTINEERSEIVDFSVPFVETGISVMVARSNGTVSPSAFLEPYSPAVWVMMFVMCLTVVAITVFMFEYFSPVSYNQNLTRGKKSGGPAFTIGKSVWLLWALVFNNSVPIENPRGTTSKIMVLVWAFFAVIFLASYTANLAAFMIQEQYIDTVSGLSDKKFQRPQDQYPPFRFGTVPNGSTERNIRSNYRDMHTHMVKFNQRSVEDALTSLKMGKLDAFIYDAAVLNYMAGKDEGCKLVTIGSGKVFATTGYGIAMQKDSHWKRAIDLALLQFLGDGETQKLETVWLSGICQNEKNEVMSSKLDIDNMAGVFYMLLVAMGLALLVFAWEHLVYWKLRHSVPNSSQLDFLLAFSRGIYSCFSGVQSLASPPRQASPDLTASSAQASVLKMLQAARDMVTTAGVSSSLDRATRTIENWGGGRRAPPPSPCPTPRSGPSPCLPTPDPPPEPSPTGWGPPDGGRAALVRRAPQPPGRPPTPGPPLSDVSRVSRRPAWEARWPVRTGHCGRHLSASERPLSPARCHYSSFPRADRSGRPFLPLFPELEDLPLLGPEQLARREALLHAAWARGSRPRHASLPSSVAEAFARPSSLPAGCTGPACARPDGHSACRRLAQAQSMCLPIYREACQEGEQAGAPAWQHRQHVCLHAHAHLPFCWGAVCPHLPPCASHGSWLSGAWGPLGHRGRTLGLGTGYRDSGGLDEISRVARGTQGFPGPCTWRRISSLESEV
Procedure: as §1, §2

[4] = target: GluN1-GluN2A NMDAR subtype (Homo sapiens, UniProt Q05586+Q12879); experiment: FLIPR/Ca2+ assay, NMDAR GluN1-GluN2A subtype in CHO cells; conditions: CHO cells, 10 μM L-glutamate and 10 μM glycine; n.d. = 50% of inhibition could not be reached at the highest concentration used
Procedure: as §1, §2

Row | Compound | IC50 ([1]; read-out: pIC50 (mean ± SEM) GluN1-GluN2B (converted)) [µM] | IC50 ([2]; read-out: pIC50 (mean ± SEM) GluN1-GluN2D (converted)) [µM] | IC50 ([3]; read-out: pIC50 (mean ± SEM) GluN1-GluN2C (converted)) [µM] | pIC50 (mean ± SEM) GluN1-GluN2B [1] | pIC50 (mean ± SEM) GluN1-GluN2D [2] | pIC50 (mean ± SEM) GluN1-GluN2A [4] | pIC50 (mean ± SEM) GluN1-GluN2C [3]
1 | CCC1=N[C@@H](C)CC1(c1ccccc1)c1ccccc1 [(S)-EMDP, 5-Ethyl-2-methyl-4,4-diphenyl-3,4-dihydro-2H-pyrrole] | > 100 | > 100 | > 100 | – | – | – | –
2 | CC[C@H](O)C(C[C@H](C)N(C)C)(c1ccccc1)c1ccccc1 [(3S,6S)-ML, (3S,6S)-6-(dimethylamino)-4,4-diphenylheptan-3-ol] | – | – | – | 4.0 ± 0.077 | 4.2 ± 0.16 | 4.1 ± 0.034 | 4.1 ± 0.056
3 | CC[C@H](O)C(C[C@@H](C)N(C)C)(c1ccccc1)c1ccccc1 [(3S,6R)-ML, (3S,6R)-6-(dimethylamino)-4,4-diphenylheptan-3-ol] | – | – | – | – | 4.2 ± 0.23 | 4.5 ± 0.18 | 4.2 ± 0.074
4 | CC[C@@H](O)C(C[C@@H](C)N(C)C)(c1ccccc1)c1ccccc1 [(3R,6R)-ML, (3R,6R)-6-(dimethylamino)-4,4-diphenylheptan-3-ol] | – | – | – | 4.0 ± 0.12 | 4.3 ± 0.12 | 4.5 ± 0.085 | 4.1 ± 0.062
5 | CCC1=[N+](C)[C@H](C)CC1(c1ccccc1)c1ccccc1.[Cl-] [(R)-EDDP, 2-Ethyl-1,5-dimethyl-3,3-diphenyl-3,4-dihydro-5H-pyrrolium chloride] | – | – | – | – | 4.3 ± 0.060 | – | 4.3 ± 0.056
